These results are taken from patent US11173139B2, “Method for extending lifespan delaying the onset of age-related disease” (priority 2004, dated 2021).

Each structure is given as a SMILES string.

Data set [1] has as its system Sir2 or SIRT1. Particulars: cited from earlier work.
Data set [2] deals with C. elegans (N2 wild type). Kind of data set: C. elegans lifespan on oxaloacetate-containing nematode growth agar. The format is in vivo, Caenorhabditis elegans. The procedure: A similar set of eight control plates with the same nematode growth agar was also prepared. […] In addition, five “starter plates” were made using nematode growth agar and no 5′flurodeoxyuridine. All plates were streaked with 0.5 ml bacteria Luria broth containing E. coli as a food source for the nematodes. The bacteria were allowed to grow on the plates for several days at 37° C. prior to adding C. elegans. Ten C. elegans nematodes were transferred to each of five “starter plates” and were left on the plates for 12 hours to lay eggs. The C. elegans were then removed and the eggs were allowed to grow into young adults for two days. Ten nematodes were then transferred to each control plate and oxaloacetate plate by “picking” worms with a microprobe from the starter plate and moving it onto the target test plates. The day after the starter plates have been started with the 10 C. elegans was designated “day 0”, and was the estimated time of birth. The C. elegans were kept out of direct sunlight and were raised at a temperature of 21° C. The plates with the C. elegans were counted every day to determine the number of dead nematodes. Nematodes were scored as dead when they no longer respond to a gentle prodding with a probe. Lifespan is defined as the time elapsed from when the nematodes are hatched (lifespan=0) to when they are scored as dead. Nematodes that crawl off the plates or are otherwise lost during the assay have been excluded from calculations. The dead nematodes were removed from the plates each day with microprobe. The total population is the sum of all found dead worms. The counting of the nematodes was continued until all nematodes were dead. The data was then charted and is represented in FIG. 2. […] The highest increase in lifespan was at 16 mM (approximate 25%) for the concentrations tested, and the lowest increase was a 2 mM (approximately 10%). […] Splitomycin is a selective inhibitor for the Sir2 gene (Sir2a in yeast, Sirt1 in humnans).

The subject of data set [3] is Drosophila melanogaster (Vestigal type). In words: D. melanogaster lifespan with oxaloacetate in fly food. The format is in vivo. Particulars: Example 4, 16 mM in water wetting the fly food, vs control. The text has this: The fruit fly Drosophila melanogaster (Vestigal type, from Carolina Biological Supply) was used as a test organism to assess the addition of oxaloacetate therapy (from Sigma Aldrich Company) applied to the cells to extend lifespan and to act as a caloric restriction “mimic”. The fruit fly is more complex than C. elegans, but the metabolic pathways that involve calorie restriction are a basic building block of life, and are conserved throughout the animal kingdom. […] A small amount of yeast was added on top of the fly food. […] The flies were kept in a room receiving reflected natural sunlight at a temperature of 21° C. Each of the flies used emerged from the pupae state within 8 hours of each other. The day the flies were moved to the test vials was designated “day 0”, reflecting the emergence of the fly into adulthood. The flies were kept out of direct sunlight and were raised at a temperature of 21° C. The food vials were prepared every 3 to 4 days and the flies transferred to prevent infestation of mites and other pathogenic microbial organisms. The vials with the flies were counted every day to determine the number of dead vs. living. Flies were scored as dead when they no longer respond to a gentle prodding with a probe. Lifespan is defined as the time elapsed from when the flies enter into adulthood (lifespan=0) to when they are scored as dead. […]

Data set [4] concerns Drosophila melanogaster. Kind of data set: D. melanogaster lifespan under stress (food vials not changed, microbial pathogens). The format is in vivo. Particulars: Example 5, flies under stress. The source says:
It is well known in the literature that calorie restricted animals survive stress better than the control animals fed an ad libitum diet. The data from the experiment were charted and are represented in FIG. 5.

A short description of data set [5]: Weight gain of older (9 month) C57Bl/6 mice fed oxaloacetate. The format is in vivo, C57Bl/6 type male mice. Particulars: 0.4% oxaloacetate in the food, eating freely, 9 month old mice. The source says: C57Bl/6 type male mice approximately 9 months of age were obtained from Harlan, San Diego, Calif. as retired breeders. These mice were all born on the same day. The C57Bl/6 type mouse is inbred to reduce the genetic variation between individuals. The mice were housed in individual cages and were provided with ad libitum amounts of fortified food pellets (Kadee). The amount of food consumed was weighed daily, while the mice were weighed weekly. After two weeks, a baseline of the average food consumed by the mice was established at 7.1 grams per mouse per day. In addition, after an overnight fast, blood glucose readings for each mouse were recorded for each mouse. […] Male C57Bl/6 type mice, when allowed to eat freely, gain weight with age in a linear fashion. The mice were weighed weekly for 21 weeks, and the individual weights were recorded and averaged to form a “group average” for each of the three groups.

Data set [6] relates to liver tissue gene expression. In words: Liver gene expression, Affymatrix Mouse Genome 430 2.0 Array, oxaloacetate and CR mice versus control mice. The format is in vivo, C57Bl/6 mice. The note with it: for common genes changed in same direction as calorie restriction: of the 363 common genes. The source says: Three mice of each of the three groups of the C57Bl/6 mice of Example 6 were sacrificed after 21 weeks. […] Because each group was a pooling of three mice, there are a variety of individual responses. Changes in the physical results of the group (such as weight loss, increase in health span, and increase in life span) are due to genes expressed in common by the group, not in individual variation. Thus it is important to look at the genes that changed in expression from the control group, but are commonly expressed between the calorie restricted group and the oxaloacetate supplemented group.

Data set [7] has as its system C57Bl/6 mice. Kind of data set: Lifespan and health of C57Bl/6 mice fed oxaloacetate. Format: in vivo. The note with it: 0.4% in food by weight, at the 21st month of life, still continuing.
The conditions of data set [8]: mouse, in vivo.
The conditions of data set [9]: 21 diabetic patients, 100 mg to 1,000 mg (2-10 mg/kg); cited from earlier work.
The conditions of data set [10]: in vivo; cited from earlier work.
Where [11] appears, read: count of genes among those shown to change commonly.

For the molecule `CC=O` [acetaldehyde], the “activity of beneficial genes” value in data set [1] was “did not see any increase in the activity of beneficial genes”.

As to `O=C(O)CC(=O)C(=O)O` [oxaloacetate], the “increase in maximal life span” value in [2] (Example 1, 16 mM in nematode growth agar, vs control plates) is 40%. In addition, the “increase in average lifespan” value was 23.6% in data set [2] (Example 1, 16 mM in nematode growth agar, vs control plates, 21° C.) and 20% in data set [3]. Besides, the increase in lifespan entry was “approximately 10%” in data set [2] (Example 2, 2 mM in agar (lowest increase)) and about 25% in [2] (Example 2, 16 mM in agar (highest increase)). For the same molecule, the “maximal increase in lifespan” value in data set [4] came to 30%. In [5], the “less weight gained than control group” value stood at 20%. Also, the “percentage of common changed genes moving in same direction as calorie restriction” value in data set [6] (363 common genes, liver, Table 1) came out at 98%. In data set [6] (Affymatrix No. 3985, OX versus CR, both to control), the “Gene Movement in Same Direction?, Cyp2b9” value is on record as “YES”. Further, in [6] (Affymatrix No. 17655, OX versus CR, both to control), the “Gene Movement in Same Direction?, similar to cytochrome P450 2B4-rat (LOC232993)” value is listed as “YES”. For the same molecule, in data set [6] (Table 2, 1.7 fold cut off), the “Percentage of Genes Moving in Same Direction as Calorie Restricted Mice” value came out at 100.0%. In addition, the “Mice Fed Oxaloacetate with Genes Moving in Opposite Direction as Calorie Restricted Mice” value in data set [6] (setting [11]) is reported as 7. Further, the “Mice Fed Oxaloacetate with Genes Moving in Same Direction as Calorie Restricted Mice” value in data set [6] (setting [11]) amounted to 356. In [6] (genes shown to change commonly), the “Percentage of Mice Fed Oxaloacetate with Genes Moving in Same Direction as Calorie Restricted Mice” value was found to be 98.1%. Moreover, the “common genes changed in same direction as calorie restriction” value in data set [6] (liver) amounted to 357 genes; in data set [6] (liver, listed as Oxaloacetate) it was 356 genes. Besides, in [6] (pooled liver of three mice, 21 weeks), the “genes with measurable change in expression versus control” value turned out to be 765 genes. In data set [6] (pooled liver, 21 weeks), the “genes changed in common with calorie restricted mice versus control” value came out at 363 genes. In addition, in data set [7], the “increase in lifespan over control group” value is on record as at least 10%. The “toxicity” value in data set [8] is “negative toxicity”. In data set [9], the side effects entry was “no negative side effects”. Besides, in [10], the LD50 result is “above 5 g/kg of body weight”.

For `O=C1CCc2c(ccc3ccccc23)O1` [splitomycin, reference compound], the “lifespan compared with control group” value in data set [2] (Example 3, FIG. 3, inhibited Sir2 function, no oxaloacetate) is reported as “lived for shorter periods than the control group”.
